The source made the active and inactive calls. The rule behind the calls is not given here.

Data on ten molecules can be found in PubChem BioAssay AID1259411 (Chemical Carcinogenesis Research Information System (CCRIS), 2018).

In this series the test system is rodent carcinogenicity bioassays, tumor incidence. The series can be described thus: CCRIS carcinogenicity studies. The procedure, abridged:
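NCI-built, expert-reviewed records of carcinogenicity and related test outcomes (mutagenicity, tumor promotion/inhibition) compiled from published and report sources, historical span 1985-2011, not updated.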

Turning to `CNC(=O)N(C)N=O`, the carcinogen call is “active; positive” (Species: RAT, Strain/Sex: F344/FEMALE, Route: GAVAGE, Dose: 0, 20, 40 UMOL/WK IN CORN OIL/ETHYL ACETATE (2: 1) FOR 30 WK FOR TOTAL DOSES OF 0, 0.6, 1.2 MMOL (STUDY DURATION: LIFETI, Dose: 0, 20, 40 UMOL/WK IN CORN OIL/ETHYL ACETATE (2: 1) FOR 30 WK FOR TOTAL DOSES OF 0, 0.6, 1.2 MMOL (STUDY DURATION: LIFETI, Tumor Site: Type of Lesion: NERVOUS SYSTEM: TUMOR); “active; positive” (Species: RAT, Strain/Sex: F344/FEMALE, Route: INTRAVESICULAR, Dose: 0, 2.4 MG 2/WK FOR 30 WK (STUDY DURATION: LIFETIME), Tumor Site: Type of Lesion: BRAIN: TUMOR, KIDNEY: TUMOR); “active; positive” (Species: RAT, Strain/Sex: F344/FEMALE, Route: ORAL, Dose: 0, 20, 40 UMOL/WK IN DRINKING WATER FOR 30 WK FOR TOTAL DOSES OF 0, 0.6, 1.2 MMOL (STUDY DURATION: LIFETIME), Dose: 0, 20, 40 UMOL/WK IN DRINKING WATER FOR 30 WK FOR TOTAL DOSES OF 0, 0.6, 1.2 MMOL (STUDY DURATION: LIFETIME), Tumor Site: Type of Lesion: UTERUS: TUMOR, THYROID: FOLLICULAR CELL TUMOR, NERVOUS SYSTEM: TUMOR, Tumor Site: Type of Lesion: UTERUS: TUMOR, THYROID: FOLLICULAR CELL TUMOR, NERVOUS SYSTEM: TUMOR); “active; positive” (Species: RAT, Strain/Sex: F344/MALE, Route: GAVAGE, Dose: 0, 20, 40 UMOL/WK IN CORN OIL/ETHYL ACETATE (2: 1) FOR 30 WK FOR TOTAL DOSES OF 0, 0.6, 1.2 MMOL (STUDY DURATION: LIFETI, Dose: 0, 20, 40 UMOL/WK IN CORN OIL/ETHYL ACETATE (2: 1) FOR 30 WK FOR TOTAL DOSES OF 0, 0.6, 1.2 MMOL (STUDY DURATION: LIFETI, Tumor Site: Type of Lesion: NERVOUS SYSTEM: TUMOR, TESTIS: MESOTHELIOMA); “active; positive” (Species: RAT, Strain/Sex: F344/MALE, Route: ORAL, Dose: 0, 20, 40 UMOL/WK IN DRINKING WATER FOR 30 WK FOR TOTAL DOSES OF 0, 0.6, 1.2 MMOL (STUDY DURATION: LIFETIME), Dose: 0, 20, 40 UMOL/WK IN DRINKING WATER FOR 30 WK FOR TOTAL DOSES OF 0, 0.6, 1.2 MMOL (STUDY DURATION: LIFETIME), Tumor Site: Type of Lesion: TESTIS: MESOTHELIOMA, NERVOUS SYSTEM: TUMOR).

For the molecule `c1ccc2nc3ccc4ccccc4c3cc2c1`, the carcinogen call (Species: RAT, Strain/Sex: OSBORNE-MENDEL/FEMALE, Route: LUNG IMPLANT, Dose: 0, 0.2, 1.0, 5.0 MG IN BEESWAX/TRICAPRYLIN (STUDY DURATION: LIFETIME), Dose: 0, 0.2, 1.0, 5.0 MG IN BEESWAX/TRICAPRYLIN (STUDY DURATION: LIFETIME)) is “inactive; negative”.

With `O=NN1CCOC(O)C1` (stereo not drawn), the carcinogen call (Species: MOUSE, Strain/Sex: STRAIN-A/FEMALE, Route: ORAL, Dose: 0, 0.2 UMOL/ML IN DRINKING WATER FOR 10 WK (TOTAL DOSE: 0; 53 UMOL) FOLLOWED BY TAP WATER FOR 20 WK (STUDY DURATION: 30, Dose: 0, 0.2 UMOL/ML IN DRINKING WATER FOR 10 WK (TOTAL DOSE: 0; 53 UMOL) FOLLOWED BY TAP WATER FOR 20 WK (STUDY DURATION: 30, Tumor Site: Type of Lesion: LUNG: TUMORS) is “active; positive”; the carcinogen call (Species: RAT, Strain/Sex: F344/FEMALE, Route: GAVAGE, Dose: 0, 22 MG/WK FOR A TOTAL DOSE OF 8.5 MMOL (STUDY DYRATION: 110 WK), Tumor Site: Type of Lesion: LIVER: TUMOR, LUNG: TUMOR) is “active; positive”; the carcinogen call (Species: RAT, Strain/Sex: F344/FEMALE, Route: ORAL, Dose: 0, 15, 30 MG/L IN DRINKING WATER 5 D/WK FOR 50 WK (TOTAL DOSE: 0; 0.6; 1.2 MMOL) (STUDY DURATION: 124 WK), Dose: 0, 15, 30 MG/L IN DRINKING WATER 5 D/WK FOR 50 WK (TOTAL DOSE: 0; 0.6; 1.2 MMOL) (STUDY DURATION: 124 WK)) was “inactive; negative”.

For `CC(C)NCC(O)c1ccc2ccccc2c1` (stereo not drawn), where the note is “Species: MOUSE, Route: ORAL, Tumor Site: Type of Lesion: THYROID GLAND”, the carcinogen call was “active; positive”.

Consider `CCCCCOC(=O)COc1cc(N2C(=O)C3=C(CCCC3)C2=O)c(F)cc1Cl`, for which the carcinogen call is, setting by setting: (Species: Mouse, Strain/Sex: CD-1 (ICR)/Female (51/Group), Route: Oral, Dose: 0, 37.8, 368.1, 850.1 mg/kg/day of 94.7% flumiclorac pentyl in diet for 78 wk, study duration 78 wk, Dose: 0, 37.8, 368.1, 850.1 mg/kg/day of 94.7% flumiclorac pentyl in diet for 78 wk, study duration 78 wk) “inactive; negative”; (Species: Mouse, Strain/Sex: CD-1 (ICR)/Male (51/Group), Route: Oral, Dose: 0, 31.5, 307.9, 731.4 mg/kg/day of 94.7% flumiclorac pentyl in diet for 78 wk, study duration 78 wk, Dose: 0, 31.5, 307.9, 731.4 mg/kg/day of 94.7% flumiclorac pentyl in diet for 78 wk, study duration 78 wk) “inactive; negative”; (Species: Rat, Strain/Sex: Crj:CD(SD)/Female (50/Group), Route: Oral, Dose: 0, 4.3, 43.6, 443.8, 919.4 mg/kg/day of 94.4% flumiclorac pentyl in diet for 24 mo, study duration 24 mo, Dose: 0, 4.3, 43.6, 443.8, 919.4 mg/kg/day of 94.4% flumiclorac pentyl in diet for 24 mo, study duration 24 mo) “inactive; negative”; (Species: Rat, Strain/Sex: Crj:CD(SD)/Male (50/Group), Route: Oral, Dose: 0, 3.5, 35.4, 360.4, 744.9 mg/kg/day of 94.4% flumiclorac pentyl in diet for 24 mo, study duration 24 mo, Dose: 0, 3.5, 35.4, 360.4, 744.9 mg/kg/day of 94.4% flumiclorac pentyl in diet for 24 mo, study duration 24 mo) “inactive; negative”.

As to `CCCCCCCCCCCCc1ccccc1`, for the setting “Species: MOUSE, Strain/Sex: HR/HR OSLO/MALE, FEMALE, Route: DERMAL, Dose: 0, 16, 80% IN ACETONE 2/WK FOR 78 WK (STUDY DURATION: 80 WK), Dose: 0, 16, 80% IN ACETONE 2/WK FOR 78 WK (STUDY DURATION: 80 WK), Tumor Site: Type of Lesion: SKIN: TUMOR”, the carcinogen call is “active; positive”.

Turning to `COc1cc2c(c3c1c(=O)c1ccccc1n3C)C=CC(C)(C)O2`, the carcinogen call is “active; positive” (Species: RAT, Strain/Sex: SPRAGUE-DAWLEY/FEMALE, Route: INTRAPERITONEAL, Dose: 0, 3.75, 7.5, 15 MG/KG FOR 52 WK (STUDY DURATION: 80-82 WK), Dose: 0, 3.75, 7.5, 15 MG/KG FOR 52 WK (STUDY DURATION: 80-82 WK), Tumor Site: Type of Lesion: MAMMARY GLAND: FIBROADENOMA, PERITONEAL CAVITY: SARCOMA OR FIBROSARCOMA OR MESOTHELIOMA) and “active; positive” (Species: RAT, Strain/Sex: SPRAGUE-DAWLEY/MALE, Route: INTRAPERITONEAL, Dose: 0, 3.75, 7.5, 15 MG/KG FOR 51-52 WK (STUDY DURATION: 51-82 WK), Dose: 0, 3.75, 7.5, 15 MG/KG FOR 51-52 WK (STUDY DURATION: 51-82 WK), Tumor Site: Type of Lesion: MUSCULOSKELETAL SYSTEM: OSTEOSARCOMA, PERITONEAL CAVITY: SARCOMA OR FIBROSARCOMA OR MESOTHELIOMA).

On to `CN(N=O)C(=O)c1c(N(C)N=O)ncn1C`, for which the carcinogen call (Species: RAT, Strain/Sex: BD-IX/MALE, FEMALE, Route: GAVAGE, Dose: 0, 6, 60 MG/KG 2/WK AFTER 2 WK HIGH DOSE REDUCED TO 30 MG/KG FOR DURATION OF STUDY (STUDY DURATION: LIFETIME), Dose: 0, 6, 60 MG/KG 2/WK AFTER 2 WK HIGH DOSE REDUCED TO 30 MG/KG FOR DURATION OF STUDY (STUDY DURATION: LIFETIME), Tumor Site: Type of Lesion: FORESTOMACH: TUMOR) is “active; positive”.

In the case of `Cc1ccc(N)c(C)c1`, the carcinogen call (Species: MOUSE, Strain/Sex: CD-1/FEMALE, Route: ORAL, Tumor Site: Type of Lesion: LUNG) is “active; positive”.

For `O=C1O[C@H]([C@H](O)CO)C(O)=C1O`, the carcinogen call (Species: MOUSE, Strain/Sex: B6C3F1/FEMALE, Route: ORAL, Dose: 0, 2.5, 5% IN DRINKING WATER FOR 96 WK (STUDY DURATION: 110 WK), Dose: 0, 2.5, 5% IN DRINKING WATER FOR 96 WK (STUDY DURATION: 110 WK)) was “inactive; negative”; the carcinogen call (Species: MOUSE, Strain/Sex: B6C3F1/MALE, Route: ORAL, Dose: 0, 1.25, 2.5% IN DRINKING WATER FOR 96 WK (STUDY DURATION: 110 WK), Dose: 0, 1.25, 2.5% IN DRINKING WATER FOR 96 WK (STUDY DURATION: 110 WK)) is “inactive; negative”; the carcinogen call (Species: RAT, Strain/Sex: F344/FEMALE, Route: ORAL, Dose: 0, 1.25%, 2.5% IN TAP DRINKING WATER FOR 104 WK (STUDY DURATION: LIFESPAN), Dose: 0, 1.25%, 2.5% IN TAP DRINKING WATER FOR 104 WK (STUDY DURATION: LIFESPAN)) was “inactive; negative”; the carcinogen call (Species: RAT, Strain/Sex: F344/MALE, Route: ORAL, Dose: 0, 1.25%, 2.5% IN TAP DRINKING WATER FOR 104 WK (STUDY DURATION: LIFESPAN), Dose: 0, 1.25%, 2.5% IN TAP DRINKING WATER FOR 104 WK (STUDY DURATION: LIFESPAN)) is “inactive; negative”.
